According to paper PMC5448350, “2-Pentadecyl-2-Oxazoline, the Oxazoline of Pea, Modulates Carrageenan-Induced Acute Inflammation” (Frontiers in Pharmacology, 2017):

Molecular target: T1, N-acylethanolamine-hydrolyzing acid amidase (NAAA) (Homo sapiens, UniProt Q02083)
T1 construct: human recombinant NAAA stably expressed in HEK-293 cells (12000 × g membrane fraction)
T1 sequence (Q02083 29-125): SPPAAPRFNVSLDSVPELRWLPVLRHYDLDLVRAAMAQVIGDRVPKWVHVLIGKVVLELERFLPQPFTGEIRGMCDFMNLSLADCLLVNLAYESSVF
T1 sequence (Q02083 126-359): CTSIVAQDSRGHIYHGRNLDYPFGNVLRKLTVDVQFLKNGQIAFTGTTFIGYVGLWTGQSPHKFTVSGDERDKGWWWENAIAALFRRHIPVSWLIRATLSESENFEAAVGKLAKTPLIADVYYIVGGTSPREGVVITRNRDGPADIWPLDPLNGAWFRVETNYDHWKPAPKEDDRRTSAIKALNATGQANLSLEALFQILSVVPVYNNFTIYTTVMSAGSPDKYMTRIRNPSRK
Test: [3H]-PEA hydrolysis assay in membranes of HEK-293 cells overexpressing human NAAA, pH […]
Format: cell-based
Conditions: HEK293

inhibition at 50 µM: 75%
SMILES: CCCCCCCCCCCCCCCC1=NCCO1 [PEA-OXA, 2-Pentadecyl-2-oxazoline]
